Measured values from patent publication US12466849B2, “Anti-viral and anti-tumoral compounds” (YEDA RESEARCH AND DEVELOPMENT CO. LTD, priority 2020, dated 2025).
pEC50: −log10 of the molar value. ≈ marks a conversion by molar mass, not a printed value.

Columns and labels:
[1] = system: adenovirus-5 (Ad5)
[2] = molecular target: T1, SARS-Cov2 RdRp (nsp12-nsp7-nsp8) (Severe acute respiratory syndrome coronavirus 2, UniProt P0DTD1); assay type: biochemical; settings: primer extension; analog at 100 uM, printed 100 mM
[3] = in vitro; settings: male, SD, rat, plasma
[4] = system: Human cytomegalovirus (HCMV), strain AD169; settings: for pEC50 / EC90: drug concentration 0.048-150 μM
[5] = system: HCMV AD169; test: HCMV plaque reduction assay, MRC-5 cells, strain AD169; assay type: cell-based, Human cytomegalovirus; settings: hCMV AD169, MRC5 cells, plaque assay, 6-days duration
[6] = system: Zika virus
[7] = in vitro; settings: both, human, plasma
[8] = molecular target: T1, SARS-Cov2 RdRp (nsp12-nsp7-nsp8); assay type: biochemical; settings: after addition of GTP and CTP (third and fourth nucleotides)
[9] = system: Rift Valley fever virus (RVFV)
[10] = system: Tacaribe virus (TCRV, TRVL-11573); set-up: SI50 (SI): unit not given beside the values
[11] = system: Influenza B
[12] = system: respiratory syncytial virus (RSV, A2); settings: for SI50 (SI): RSV, SI = CC50/EC50
[13] = system: influenza A(H5N1)
[14] = system: influenza A(H1N1)
[15] = system: Influenza B/Florida/4/2006 (Yamagata); settings: for SI50 (SI): Influenza B, SI = CC50/EC50
[16] = system: influenza/California/07/2009 (H1N1)pdm09; settings: for SI50 (SI): Influenza(H1N1), SI = CC50/EC50
[17] = system: TCRV
[18] = system: RSV
[19] = system: SARS-CoV-2 (USA-WA1/2020); settings: for SI50 (SI): SARS-CoV-2, SI = CC50/EC50
[20] = system: BK virus (BKV), Gardner strain; set-up: SI50 / SI90: unit not given beside the values
[21] = system: Epstein-Barr virus (EBV), Akata strain; set-up: SI50 / SI90: unit not given beside the values
[22] = system: MERS-CoV (EMC); assay type: cell-based; settings: SI = CC50/EC50
[23] = system: enterovirus-68 (EV-68, US/DY/14-18953); settings: for SI50 (SI): EV-68, SI = CC50/EC50
[24] = system: dengue virus-2 (DENV-2, New Guinea C); settings: SI = CC50/EC50
[25] = system: JC virus (JCV)
[26] = system: enterovirus-68 (EV-68)

## Nc1ccn([C@H]2CC[C@@H](CO)O2)c(=O)n1 [2-3 Dideoxycytidine]
[1]
  CC50: >100 µg/mL
  EQ50: 1.8 µg/mL
  SI: >56

## O=c1ccn([C@@H]2O[C@H](COP(=O)(O)OP(=O)(O)OP(=O)(O)O)C[C@H]2O)c(=O)[nH]1 [3′-dUTP, 3′-deoxyuracil triphosphate, reference compound]
[2]
  incorporation into RNA by SARS-Cov2 RdRp (in words): same level of incorporation as ddhUTP

## COc1ccc([C@@H]2Sc3ccccc3N(CCN(C)C)C(=O)[C@@H]2OC(C)=O)cc1 [Diltiazem]
[3]
  half-life at 0.75 µM: 2.08 h

## Nc1nc2c(ncn2COC(CO)CO)c(=O)[nH]1 [GCV]
[4]
  CC50: > 150 µM
  pEC50: 6.72
  EC90: > 150 µM

## Nc1nc2c(ncn2COC(CO)CO)c(=O)[nH]1 [Ganciclovir, reference compound]
[5]
  pEC50: 5.13

## C#C[C@@]1(O)[C@H](O)[C@@H](CO)O[C@H]1n1ccc2c(N)ncnc21 [NITD008, reference compound]
[6]
  CC50: 44 µg/mL (≈ 0.152 mM)
  EQ50: 1.8 µg/mL
  SI: 24

## CC(C)[N+](C)(CCOC(=O)C1c2ccccc2Oc2ccccc21)C(C)C [Propantheline]
[7]
  half-life at 0.75 µM: 0.28 h

## N#C[C@@]1(c2ccc3c(N)ncnn23)O[C@H](COP(=O)(O)OP(=O)(O)OP(=O)(O)O)[C@@H](O)[C@H]1O [REM-TP, Remdesivir-TP, reference compound]
[2]
  incorporation into RNA by SARS-Cov2 RdRp (in words): incorporated into RNA as ATP analogs
[8]
  chain termination of RNA synthesis (in words): did not cause chain termination

## NC(=O)c1ncn([C@@H]2O[C@H](CO)[C@@H](O)[C@H]2O)n1 [Ribavirin, Ribavirin (Virazole), reference compound]
[9]
  SI: 62
[9]; RVFV, Vero 76 cells, positive control
  EQ50: 14 µg/mL
[9]; Vero 76 cells without virus, positive control
  CC50: 870 µg/mL (≈ 3.56 mM)
[10]
  CC50: > 1000 µg/mL
  SI50 (SI): >190
[11]
  CC50: >1000 µg/mL
  EQ50: 1.4 µg/mL
  SI: >710
[12]
  CC50: 310 µg/mL
  SI50 (SI): 16
[13]
  SI: >560
[13]; MDCK cells without virus, positive control
  CC50: >1000 µg/mL
[13]; influenza A(H5N1), MDCK cells, positive control
  EQ50: 1.8 µg/mL
[14]
  CC50: >1000 µg/mL
  EQ50: 4.6 µg/mL
  SI: >220
[15]
  CC50: > 1000 µg/mL
  SI50 (SI): >130
[16]
  CC50: > 1000 µg/mL
  SI50 (SI): >130
[17]
  CC50: 820 µg/mL (≈ 3.36 mM)
  EQ50: 13 µg/mL
  SI: 63
[18]
  CC50: 42 µg/mL (≈ 0.172 mM)
  EQ50: 7.3 µg/mL
  SI: 5.8

## CC(C)(C)C(=O)SCCOP(=O)(OCCSC(=O)C(C)(C)C)OCC1=CC(O)C(n2cnc3c(N)ncnc32)O1 (centres unmarked) [SATE-ddhA]
[19]
  CC50: 49 µM
  SI50 (SI): 0
[20]
  Activity: NA (key: NA (Not Active) SI50 = 0-3.9; MOD (Moderately Active) SI50 = 4-9.9; HI (Highly Active) SI50 = ≥10)
  CC50: 89.7 µM
  pEC50: < 4.52
  EC90: > 30 µM
  SI50: <3
  SI90: <3
[21]
  Activity: MOD (key: NA (Not Active) SI50 = 0-3.9; MOD (Moderately Active) SI50 = 4-9.9; HI (Highly Active) SI50 = ≥10)
  CC50: 55.8 µM
  pEC50: 4.89
  EC90: 26.8 µM
  SI50: 4
  SI90: 2
  activity against EBV (in words): moderately active
[10]
  CC50: 58 µM
  SI50 (SI): 0
[22]
  SI50 (SI): 0
[12]
  CC50: 170 µM
  SI50 (SI): 0
[15]
  CC50: 180 µM
  SI50 (SI): 0
[16]
  CC50: 180 µM
  SI50 (SI): 0
[23]
  CC50: 2 µM
  SI50 (SI): 0
[24]
  SI50 (SI): 0

## CC(C)(C)C(=O)SCCOP(=O)(OCCSC(=O)C(C)(C)C)OCC1=CC(O)C(n2ccc(N)nc2=O)O1 (centres unmarked) [SATE-ddhC]
[19]
  CC50: 410 µM
  SI50 (SI): 0
[20]
  Activity: NA (key: NA (Not Active) SI50 = 0-3.9; MOD (Moderately Active) SI50 = 4-9.9; HI (Highly Active) SI50 = ≥10)
  CC50: > 150 µM
  pEC50: 4.02
  EC90: > 150 µM
  SI50: >2
  SI90: 1
[21]
  Activity: MOD (key: NA (Not Active) SI50 = 0-3.9; MOD (Moderately Active) SI50 = 4-9.9; HI (Highly Active) SI50 = ≥10)
  CC50: 124 µM
  pEC50: 4.73
  EC90: > 30 µM
  SI50: 7
  SI90: <4
  activity against EBV (in words): moderately active
[10]
  CC50: 210 µM
  SI50 (SI): 0
[22]
  SI50 (SI): 0
[12]
  CC50: 540 µM
  SI50 (SI): 0
[15]
  CC50: > 1000 µM
  SI50 (SI): 0
[16]
  CC50: 550 µM
  SI50 (SI): 0
[23]
  CC50: > 100 µM
  SI50 (SI): 0
[24]
  SI50 (SI): 0

## CC(C)(C)C(=O)SCCOP(=O)(OCCSC(=O)C(C)(C)C)OCC1=CC(O)C(n2cnc3c(=O)[nH]c(N)nc32)O1 (centres unmarked) [SATE-ddhG]
[19]
  CC50: > 1000 µM
  SI50 (SI): 0
[20]
  Activity: HI (key: NA (Not Active) SI50 = 0-3.9; LO (Slightly Active) SI50 = 4-9.9; MOD (Moderately Active) SI50 = 10-19.9; HI (Highly Active) SI50 = ≥20)
  CC50: > 150 µM
  pEC50: 5.27
  EC90: 5.86 µM
  SI50: >28
  SI90: >26
  activity against BK virus (in words): highly active
[21]
  Activity: HI (key: NA (Not Active) SI50 = 0-3.9; MOD (Moderately Active) SI50 = 4-9.9; HI (Highly Active) SI50 = ≥10)
  CC50: 106 µM
  pEC50: 5.53
  EC90: > 30 µM
  SI50: 35
  SI90: <4
  activity against EBV (in words): highly active
[10]
  CC50: 610 µM
  SI50 (SI): 0
[22]
  SI50 (SI): 0
[12]
  CC50: > 1000 µM
  SI50 (SI): 0
[15]
  CC50: > 1000 µM
  SI50 (SI): 0
[16]
  CC50: > 1000 µM
  SI50 (SI): 0
[23]
  CC50: 83 µM
  SI50 (SI): 0
[24]
  SI50 (SI): 0

## CC(C)(C)C(=O)SCCOP(=O)(OCCSC(=O)C(C)(C)C)OCC1=CC(O)C(n2cnc3c(=O)[nH]cnc32)O1 (centres unmarked) [SATE-ddhI]
[19]
  CC50: 530 µM
  SI50 (SI): 0
[20]
  Activity: NA (key: NA (Not Active) SI50 = 0-3.9; MOD (Moderately Active) SI50 = 4-9.9; HI (Highly Active) SI50 = ≥10)
  CC50: > 150 µM
  pEC50: 3.94
  EC90: > 150 µM
  SI50: >1
  SI90: 1
[21]
  Activity: MOD (key: NA (Not Active) SI50 = 0-3.9; MOD (Moderately Active) SI50 = 4-9.9; HI (Highly Active) SI50 = ≥10)
  CC50: > 150 µM
  pEC50: 4.73
  EC90: 81.9 µM
  SI50: >8
  SI90: >2
  activity against EBV (in words): moderately active
[10]
  CC50: 900 µM
  SI50 (SI): 0
[22]
  SI50 (SI): 0
[12]
  CC50: > 1000 µM
  SI50 (SI): 0
[15]
  CC50: > 1000 µM
  SI50 (SI): 0
[16]
  CC50: > 1000 µM
  SI50 (SI): 0
[23]
  CC50: > 100 µM
  SI50 (SI): 0
[24]
  SI50 (SI): 0

## C[C@H](Cn1cnc2c(N)ncnc21)OCP(=O)(O)O [TNV, reference compound]
[20]
  CC50: > 150 µM
  EC90: > 150 µM
  SI90: 1
[21]
  CC50: > 150 µM
  pEC50: 4.34
  EC90: > 150 µM
  SI50: >3
  SI90: 1
[25]
  CC50: > 150 µM
  pEC50: < 3.82
  EC90: > 150 µM
[4]
  CC50: > 150 µM
  pEC50: < 3.82
  EC90: > 150 µM

## Nc1ccn([C@@H]2OC(CO)=C[C@H]2O)c(=O)n1 [ddhC, ddh cytidine]
[26]
  activity against enterovirus EV-68 (in words): exhibits some activity

## Nc1nc2c(ncn2[C@@H]2OC(COP(=O)(O)OP(=O)(O)OP(=O)(O)O)=C[C@H]2O)c(=O)[nH]1 [ddhGTP, 3′-deoxy-3′,4′-didehydro-guanosine-triphosphate]
[2]
  incorporation into RNA by SARS-Cov2 RdRp (in words): incorporates onto RNA as GTP analog
[8]
  chain termination of RNA synthesis (in words): caused chain termination of RNA synthesis
